# Key:
# Type in all cases: in vivo
# [1] = tested on: corn; experiment: Test Example 3: soil treatment, effect on crop; c: corn; details: treatment dosage 315 g/ha
# Procedure, shortened: (§1)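 Crop and weed responses were judged three weeks after a uniform surface spray of the water-diluted emulsion at the given g/ha rate. Seeds sat beneath about 1.5 cm of sterilized diluvial soil, and boxes stood in a greenhouse at 25 to 30° C.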
# [2] = tested on: fig-leafed goosefoot; experiment: Test Example 3: weedkilling efficacy through soil treatment; M: fig-leafed goosefoot; details: treatment dosage 315 g/ha
# Procedure, shortened: as §1
# [3] = tested on: crabgrass; experiment: Test Example 3: weedkilling efficacy through soil treatment; D: crabgrass; details: treatment dosage 315 g/ha
# Procedure, shortened: as §1
# [4] = tested on: crabgrass; experiment: Test Example 4: weedkilling efficacy by foliar treatment; D: crabgrass; details: treatment dosage 315 g/ha
# Procedure, shortened: (§2)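 Seeds are spot-sown into sterilized diluvial soil and covered with about 1.5 cm of soil. After 14 days' greenhouse growth at 25 to 30° C, plants are sprayed on stems and leaves with diluted emulsion at the stated g/ha rate, then scored at 3 weeks.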
# [5] = tested on: green foxtail; experiment: Test Example 4: weedkilling efficacy by foliar treatment; E: green foxtail; details: treatment dosage 315 g/ha
# Procedure, shortened: as §2
# [6] = tested on: barnyard grass; experiment: Test Example 2: weedkilling efficacy, growth period weed treatment in the submerged state; A: barnyard grass; details: treatment dosage 252 g/ha
# Procedure, shortened: (§3)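 Barnyard grass, bulrush and oval-leafed pondweed sown in alluvial soil under 4 cm flooding, greenhouse 25 to 30° C. At 1-2 leaf stage, water-diluted emulsion applied to the water surface at stated g/ha dosages; effects scored 3 weeks later.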
# [7] = tested on: wild oat; experiment: Test Example 4: weedkilling efficacy by foliar treatment; G: wild oat; details: treatment dosage 315 g/ha
# Experimental: Testing of Weedkilling Efficacy by Foliar Treatment
# Sterilized diluvial soil was introduced into 21 cm long, 13 cm wide, 7 cm deep plastic boxes, and seeds of crabgrass, green foxtail, barnyard grass, wild oat, black-grass, Italian ryegrass, common wind-grass, Indian mallow, redroot pigweed, fig-leafed goosefoot, chickweed, catchweed, birds-eye speedwell, corn, soybean, rice, wheat, beet and rapeseed were each spot-sown, and covered with about 1.5 cm of soil, then the plants were grown in a greenhouse at 25 to 30° C.
# After they had grown for 14 days, emulsions of compounds of the present invention prepared according to compounding example 2 were diluted with water to give the specified dosages, and applied uniformly onto the stem and leaf parts with a small sprayer. 3 weeks after the pesticide treatment the effect on each type of plant was investigated on the basis of the assessment criteria of test example 1.
# A: barnyard grass, B: bulrush, C: oval-leafed pondweed, D: crabgrass, E: green foxtail, F: barnyard grass, G: wild oat, H: black-grass, I: Italian ryegrass, J: common wind-grass, K: Indian mallow, L: redroot pigweed, M: fig-leafed goosefoot, N: chickweed, O: catchweed, p: birds-eye speedwell, a: transplanted rice, b: directly sown rice, c: corn, d: soybean, e: wheat, f: beet, g: rapeseed
# Further, pesticide dosage (g/ha) indicates the concentration regulated such that treatment was with only the stated number of grams (g), when calculated per hectare (ha).
# [8] = tested on: corn; experiment: Test Example 4: foliar treatment, effect on crop; c: corn; details: treatment dosage 315 g/ha
# Procedure, shortened: as §2
# [9] = tested on: barnyard grass; experiment: Test Example 1: weedkilling efficacy, preemergent weed treatment in the submerged state; A: barnyard grass; details: treatment dosage 252 g/ha
# Procedure, shortened: (§4)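 Pots of alluvial soil flooded 4 cm deep, sown with barnyard grass, bulrush and oval-leafed pondweed and transplanted with 2.5-leaf rice. Emulsified compound applied to the water surface on sowing day at stated g/ha; greenhouse 25–30 °C, effects assessed 3 weeks after treatment.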
# [10] = tested on: Italian ryegrass; experiment: Test Example 4: weedkilling efficacy by foliar treatment; I: Italian ryegrass; details: treatment dosage 315 g/ha
# Procedure, shortened: as §2
# [11] = tested on: Indian mallow; experiment: Test Example 4: weedkilling efficacy by foliar treatment; K: Indian mallow; details: treatment dosage 315 g/ha
# Procedure, shortened: as §2
# [12] = tested on: fig-leafed goosefoot; experiment: Test Example 4: weedkilling efficacy by foliar treatment; M: fig-leafed goosefoot; details: treatment dosage 315 g/ha
# Procedure, shortened: as §2
# [13] = tested on: bulrush; experiment: Test Example 2: weedkilling efficacy, growth period weed treatment in the submerged state; B: bulrush; details: treatment dosage 252 g/ha
# Procedure, shortened: as §3
# [14] = tested on: oval-leafed pondweed; experiment: Test Example 1: weedkilling efficacy, preemergent weed treatment in the submerged state; C: oval-leafed pondweed; details: treatment dosage 252 g/ha
# Procedure, shortened: as §4
# [15] = tested on: black-grass; experiment: Test Example 4: weedkilling efficacy by foliar treatment; H: black-grass; details: treatment dosage 315 g/ha
# Procedure, shortened: as §2
# [16] = tested on: chickweed; experiment: Test Example 4: weedkilling efficacy by foliar treatment; N: chickweed; details: treatment dosage 315 g/ha
# Procedure, shortened: as §2
# [17] = tested on: directly sown rice; experiment: Test Example 4: foliar treatment, effect on crop; b: directly sown rice; details: treatment dosage 315 g/ha
# Procedure, shortened: as §2
# [18] = tested on: redroot pigweed; experiment: Test Example 4: weedkilling efficacy by foliar treatment; L: redroot pigweed; details: treatment dosage 315 g/ha
# Procedure, shortened: as §2
# [19] = tested on: green foxtail; experiment: Test Example 3: weedkilling efficacy through soil treatment; E: green foxtail; details: treatment dosage 315 g/ha
# Procedure, shortened: as §1
# [20] = tested on: beet; experiment: Test Example 3: soil treatment, effect on crop; f: beet; details: treatment dosage 315 g/ha
# Procedure, shortened: as §1
# [21] = tested on: bulrush; experiment: Test Example 1: weedkilling efficacy, preemergent weed treatment in the submerged state; B: bulrush; details: treatment dosage 252 g/ha
# Procedure, shortened: as §4
# [22] = tested on: wheat; experiment: Test Example 3: soil treatment, effect on crop; e: wheat; details: treatment dosage 315 g/ha
# Procedure, shortened: as §1
# [23] = tested on: soybean; experiment: Test Example 3: soil treatment, effect on crop; d: soybean; details: treatment dosage 315 g/ha
# Procedure, shortened: as §1
# [24] = tested on: oval-leafed pondweed; experiment: Test Example 2: weedkilling efficacy, growth period weed treatment in the submerged state; C: oval-leafed pondweed; details: treatment dosage 252 g/ha
# Procedure, shortened: as §3
# [25] = tested on: black-grass; experiment: Test Example 3: weedkilling efficacy through soil treatment; H: black-grass; details: treatment dosage 315 g/ha
# Procedure, shortened: as §1
# [26] = tested on: redroot pigweed; experiment: Test Example 3: weedkilling efficacy through soil treatment; L: redroot pigweed; details: treatment dosage 315 g/ha
# Procedure, shortened: as §1
# [27] = tested on: beet; experiment: Test Example 4: foliar treatment, effect on crop; f: beet; details: treatment dosage 315 g/ha
# Procedure, shortened: as §2
# [28] = tested on: wheat; experiment: Test Example 4: foliar treatment, effect on crop; e: wheat; details: treatment dosage 315 g/ha
# Procedure, shortened: as §2
# [29] = tested on: soybean; experiment: Test Example 4: foliar treatment, effect on crop; d: soybean; details: treatment dosage 315 g/ha
# Procedure, shortened: as §2
# [30] = tested on: wild oat; experiment: Test Example 3: weedkilling efficacy through soil treatment; G: wild oat; details: treatment dosage 315 g/ha
# Procedure, shortened: as §1
# [31] = tested on: Italian ryegrass; experiment: Test Example 3: weedkilling efficacy through soil treatment; I: Italian ryegrass; details: treatment dosage 315 g/ha
# Procedure, shortened: as §1
# [32] = tested on: catchweed; experiment: Test Example 3: weedkilling efficacy through soil treatment; O: catchweed; details: treatment dosage 315 g/ha
# Procedure, shortened: as §1
# [33] = tested on: Indian mallow; experiment: Test Example 3: weedkilling efficacy through soil treatment; K: Indian mallow; details: treatment dosage 315 g/ha
# Procedure, shortened: as §1
# [34] = tested on: transplanted rice; experiment: Test Example 1: preemergent weed treatment in the submerged state, effect on crop; a: transplanted rice; details: treatment dosage 252 g/ha
# Procedure, shortened: as §4
# [35] = tested on: catchweed; experiment: Test Example 4: weedkilling efficacy by foliar treatment; O: catchweed; details: treatment dosage 315 g/ha
# Procedure, shortened: as §2
structure (smiles),measurement,setting,value
CC1=C(c2ccccc2)C(=O)N(C(C)(C)C(=O)Nc2ccnc(C(F)(F)F)c2)CO1 [B-4-06],c (corn) effect on crop grade,[1],"2 (weed kill ratio 20% or more, less than 40%)"
same,M (fig-leafed goosefoot) weedkilling efficacy grade,[2],"4 (weed kill ratio 70% or more, less than 90%)"
same,D (crabgrass) weedkilling efficacy grade,[3],"5 (weed kill ratio 90% or more, (practically complete withering))"
same,D (crabgrass) weedkilling efficacy grade,[4],"5 (weed kill ratio 90% or more, (practically complete withering))"
same,E (green foxtail) weedkilling efficacy grade,[5],"5 (weed kill ratio 90% or more, (practically complete withering))"
same,A (barnyard grass) weedkilling efficacy grade,[6],"4 (weed kill ratio 70% or more, less than 90%)"
same,G (wild oat) weedkilling efficacy grade,[7],"5 (weed kill ratio 90% or more, (practically complete withering))"
same,c (corn) effect on crop grade,[8],"5 (weed kill ratio 90% or more, (practically complete withering))"
same,A (barnyard grass) weedkilling efficacy grade,[9],"5 (weed kill ratio 90% or more, (practically complete withering))"
same,I (Italian ryegrass) weedkilling efficacy grade,[10],"5 (weed kill ratio 90% or more, (practically complete withering))"
same,K (Indian mallow) weedkilling efficacy grade,[11],"3 (weed kill ratio 40% or more, less than 70%)"
same,M (fig-leafed goosefoot) weedkilling efficacy grade,[12],"4 (weed kill ratio 70% or more, less than 90%)"
same,B (bulrush) weedkilling efficacy grade,[13],"5 (weed kill ratio 90% or more, (practically complete withering))"
same,C (oval-leafed pondweed) weedkilling efficacy grade,[14],"5 (weed kill ratio 90% or more, (practically complete withering))"
same,H (black-grass) weedkilling efficacy grade,[15],"5 (weed kill ratio 90% or more, (practically complete withering))"
same,N (chickweed) weedkilling efficacy grade,[16],"3 (weed kill ratio 40% or more, less than 70%)"
same,b (directly sown rice) effect on crop grade,[17],"5 (weed kill ratio 90% or more, (practically complete withering))"
same,L (redroot pigweed) weedkilling efficacy grade,[18],"4 (weed kill ratio 70% or more, less than 90%)"
same,E (green foxtail) weedkilling efficacy grade,[19],"5 (weed kill ratio 90% or more, (practically complete withering))"
same,f (beet) effect on crop grade,[20],"4 (weed kill ratio 70% or more, less than 90%)"
same,B (bulrush) weedkilling efficacy grade,[21],"5 (weed kill ratio 90% or more, (practically complete withering))"
same,e (wheat) effect on crop grade,[22],"3 (weed kill ratio 40% or more, less than 70%)"
same,d (soybean) effect on crop grade,[23],0 (weed kill ratio 5% or less (practically no effect))
same,C (oval-leafed pondweed) weedkilling efficacy grade,[24],"5 (weed kill ratio 90% or more, (practically complete withering))"
same,H (black-grass) weedkilling efficacy grade,[25],"5 (weed kill ratio 90% or more, (practically complete withering))"
same,L (redroot pigweed) weedkilling efficacy grade,[26],"3 (weed kill ratio 40% or more, less than 70%)"
same,f (beet) effect on crop grade,[27],"3 (weed kill ratio 40% or more, less than 70%)"
same,e (wheat) effect on crop grade,[28],"1 (weed kill ratio 5% or more, less than 20%)"
same,d (soybean) effect on crop grade,[29],"4 (weed kill ratio 70% or more, less than 90%)"
same,G (wild oat) weedkilling efficacy grade,[30],"5 (weed kill ratio 90% or more, (practically complete withering))"
same,I (Italian ryegrass) weedkilling efficacy grade,[31],"5 (weed kill ratio 90% or more, (practically complete withering))"
same,O (catchweed) weedkilling efficacy grade,[32],"4 (weed kill ratio 70% or more, less than 90%)"
same,K (Indian mallow) weedkilling efficacy grade,[33],"1 (weed kill ratio 5% or more, less than 20%)"
same,a (transplanted rice) effect on crop grade,[34],0 (weed kill ratio 5% or less (practically no effect))
same,O (catchweed) weedkilling efficacy grade,[35],"4 (weed kill ratio 70% or more, less than 90%)"

# — patent US9738634B2, “Heterocyclic amide compound and herbicide” (SYNGENTA PARTICIPATIONS AG, priority 2013, dated 2017)
